In publication PMC6881293, “Nanomolar-potency ‘co-potentiator’ therapy for cystic fibrosis caused by a defined subset of minimal function CFTR mutants” (Scientific Reports, 2019):

Target: T1, N1303K-CFTR (Homo sapiens, UniProt P13569, N1303K)
T1 construct: expressed in transfected cells
Assay: Short-circuit current in primary human bronchial epithelial cell cultures from a N1303K homozygous CF subject
Format: cell-based
Procedure: To test the efficacy of new co-potentiators in human airway cell models, short-circuit current was measured in 16HBE14o- human airway epithelial cells in which the endogenous CFTR gene was edited to contain the N1303K mutation (16HBE-N1303Kge[21]) and in primary cultures of human bronchial epithelial cells from a N1303K homozygous CF subject. Addition of forskolin and then VX-770 to 16HBE-N1303Kge cells gave a limited response (Fig. 6A). Subsequent addition of CP-A061 or CP-D123 produced CFTRinh-172-inhibitable responses of ~10 μA/cm^2, ~6-fold greater that that produced by VX-770 alone. Increased short-circuit current was also found for these co-potentiators in the primary human bronchial epithelial cell cultures (Fig. 6B).
Figure 6 N1303K-CFTR activity in human airway epithelial cell cultures. (A) Short-circuit current in gene-edited 16HBE14o- cells expressing N1303K-CFTR. Concentrations: 20 µM amiloride, 20 µM forskolin, 5 µM VX-770, 20 µM CP-A061 and CP-D123, and 10 µM CFTRinh-172. Representative original curves (left and center) and summary of changes in current (∆Isc) (right). Mean ± S.E.M., n = 3, *P < 0.05). (B) Short-circuit current in primary cultures of human bronchial epithelial cells from a homozygous N1303K-CFTR CF subject. […]
Short-circuit current was measured on cells cultured on Snapwell clear permeable supports (Corning) as described[10],[11]. […]

T1 sequence (P13569 whole entry N1303K): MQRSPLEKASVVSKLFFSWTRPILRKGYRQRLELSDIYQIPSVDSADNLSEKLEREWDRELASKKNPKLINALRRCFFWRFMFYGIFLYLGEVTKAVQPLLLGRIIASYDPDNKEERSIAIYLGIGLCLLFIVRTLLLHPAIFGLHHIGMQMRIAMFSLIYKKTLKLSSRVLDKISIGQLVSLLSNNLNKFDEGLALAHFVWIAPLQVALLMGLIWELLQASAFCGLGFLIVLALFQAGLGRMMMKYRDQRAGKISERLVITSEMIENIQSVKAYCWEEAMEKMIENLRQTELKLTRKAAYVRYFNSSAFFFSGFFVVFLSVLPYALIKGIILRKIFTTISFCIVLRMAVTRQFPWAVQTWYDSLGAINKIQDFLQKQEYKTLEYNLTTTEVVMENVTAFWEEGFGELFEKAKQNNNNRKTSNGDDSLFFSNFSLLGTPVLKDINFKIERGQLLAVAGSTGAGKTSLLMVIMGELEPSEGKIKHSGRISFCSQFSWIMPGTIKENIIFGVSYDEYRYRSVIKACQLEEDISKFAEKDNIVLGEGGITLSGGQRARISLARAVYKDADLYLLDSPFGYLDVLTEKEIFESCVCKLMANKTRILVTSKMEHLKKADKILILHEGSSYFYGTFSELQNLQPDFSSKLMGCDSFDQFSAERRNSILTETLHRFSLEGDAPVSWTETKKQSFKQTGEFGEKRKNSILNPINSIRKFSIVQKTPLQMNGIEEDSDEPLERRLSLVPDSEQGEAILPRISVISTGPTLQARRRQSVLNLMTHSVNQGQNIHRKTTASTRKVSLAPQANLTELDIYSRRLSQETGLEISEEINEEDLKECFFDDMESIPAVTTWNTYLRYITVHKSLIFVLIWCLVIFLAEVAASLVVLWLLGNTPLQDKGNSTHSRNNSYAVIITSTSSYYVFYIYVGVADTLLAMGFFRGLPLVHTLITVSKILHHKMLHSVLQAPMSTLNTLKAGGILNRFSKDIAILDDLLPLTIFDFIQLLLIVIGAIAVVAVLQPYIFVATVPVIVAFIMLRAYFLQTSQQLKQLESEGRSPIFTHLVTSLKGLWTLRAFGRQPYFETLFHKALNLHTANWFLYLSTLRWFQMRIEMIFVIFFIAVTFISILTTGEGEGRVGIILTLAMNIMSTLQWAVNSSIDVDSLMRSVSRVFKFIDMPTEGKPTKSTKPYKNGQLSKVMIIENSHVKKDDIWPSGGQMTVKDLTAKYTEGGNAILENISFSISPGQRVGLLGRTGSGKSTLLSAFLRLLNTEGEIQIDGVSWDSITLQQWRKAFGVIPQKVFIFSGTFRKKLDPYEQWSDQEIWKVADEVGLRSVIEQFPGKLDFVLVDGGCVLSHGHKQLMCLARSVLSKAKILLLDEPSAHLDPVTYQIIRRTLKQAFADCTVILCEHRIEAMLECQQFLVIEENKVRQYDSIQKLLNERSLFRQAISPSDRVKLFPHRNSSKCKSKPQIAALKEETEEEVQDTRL

SMILES: COc1ccc2[nH]c3c(c2c1)CCNC31CCN(Cc2ccc(F)cc2F)CC1 [Compound A061]
- current as equivalent of wildtype CFTR activity (estimate based on similarly cultured non-CF and CF human airway epithelial cell cultures): ~ 20%
- CFTRinh-172-inhibitable current (primary human bronchial cell cultures, homozygous N1303K-CFTR subject, 20 µM compound after forskolin and 5 µM VX-770): ~ 2.5 μA/cm^2
